Measured values as given in US20260232644A1, “Compositions Comprising an Inhibitor of Galectin-3” (University of Liverpool, priority 2023, published 2026).
pIC50, pKd: −log10 of the molar value. Structures can show the parent of a compound that is named as a salt.

Columns and labels:
human colon cancer cells = conditions: cited from earlier work
[1] = tested on: human breast cancer cells; conditions: by suppressing activation of NFKB induced by TNFα; cited from earlier work
[2] = tested on: triple-negative breast cancer MDA-MB-231 cells; assay: Triple-negative breast cancer cell adhesion to basement matrix; assay type: cell-based, human; conditions: for Effect on adhesion of galectin-3 knockout (Gal3KO) MDA-MB-231 cells: CRISPR/Cas9 Gal3KO cells; for Effect on adhesion of non-transfected (con) MDA-MB-231 cells: control cells; for Inhibition of MDA-MB-231 cell adhesion to matrix: different concentrations
Procedure: (§1) Nanty-six well plates were coated with 50 μl Matrigel (1:30 diluted in PBS) at 37° C. for 1 hour.
(§2) Cancer cells, pre-labelled with fluorescent die DiI at 37° C. for 20 minutes, were washed twice with PBS and resuspended into 3×10^4 cells/ml in serum-free medium. The matrix-coated 96-well plates were washed twice with PBS before introduction of 100μ cell suspension with different concentrations of the inhibitors or PBS/DMSO (control) for 1 hour at 37° C. The plates were washed twice with PBS before three randomly selected Field of Views (FOVs) were recorded by fluorescence microscope and number of adhesion cells were quantified by Image J.
(§3) MDAMB-231 or PANC-1 cells were seeded into 6-well plate (2×10^5 cells) and cultured at 37° C. for 24 hour. Galectin-3 CRISPR Cas9 Knockout plasmid (2 μg) and galectin-3 HDR plasmid (2 μg) was mixed with Plasmid Transfection Medium (21 μl) for 5 minutes before addition to a mixture of lipofectamine STEM Transfection Reagent (STEM00001) (1 μl) and Plasmid Transfection Medium (25 μl) for 10 minutes at room temperature. The cells in the 6-well plates were washed and introduced with the Plasmid DNA/Lipofectamine STEM Transfection Reagent complex at 37° C. for 24 hour. The culture medium was replaced with fresh antibiotics-free medium for further 24 hour before introduction of 10 μg/mL puromycin-containing medium every three days. Successful co-transfection of the CRISPR/Cas9 KO Plasmid and HDR Plasmid was confirmed by expression of red fluorescence protein of the cells. Galectin-3 knockout in the cells was further confirmed by immunoblotting.

[3] = tested on: human pancreatic cancer PANC1 cells; assay: Pancreatic cancer cell adhesion to basement matrix; assay type: cell-based; conditions: for Effect on adhesion of galectin-3 knockout (Gal3KO) PANC1 cells: CRISPR/Cas9 Gal3KO cells; for Effect on adhesion of non-transfected (con) PANC1 cells: control cells; for Inhibition of PANC1 cell adhesion to matrix: different concentrations
Procedure: as §1, §2, §3

[4] = tested on: THP-1 differentiated macrophages; assay: Galectin-3-induced IL-1β secretion from macrophages (ELISA); assay type: cell-based; conditions: Galectin-3 10 μg/ml, various concentrations
Procedure: (§4) Effect of the compound inhibitors on secretion of pro-inflammatory cytokines from macrophages were assessed in THP-1 monocyte differentiated macrophages. THP-1 cells were induced to differentiation into macrophages by incubation with 10 ng/ml PMA for 48 h at 37° C. The culture medium was then replaced with fresh medium without or with 10 μg/ml galectin-3 and various concentrations of the compound inhibitors for 24 h at 37° C. The culture medium was collected and the concentrations of TNFα and IL-1β in the culture medium were determined by TNFα and IL-1β ELISA.

[5] = tested on: human colon cancer SW620 cells; assay: LDH release cytotoxicity assay, SW620; assay type: cell-based; conditions: various concentrations
Procedure: (§6) SW620 cells (5×10^4 cells/ml) were seeded into 96-well plate in DMEM (and incubated at 37° C. 5% CO2 for 24 hr. HUVECs (1.0×10^5 cells/ml) was seeded in EBM medium and incubated for 24-36 hr until they formed a monolayer. Compound inhibitors at different concentrations were then introduced to the cells (10× lysis buffer was included as maximum LDH activity control) for 24 hr. The culture medium was transferred to a new plate and was mixed with equal volume of reaction mixture provided in the kit for 30 min at room temperature before the absorbance was measured at 490 nm (reference 680 nm) by a spectrophotometer.

[6] = tested on: human umbilical vein endothelial cells (HUVECs); assay: Vascular cell tubule formation (angiogenesis); assay type: cell-based; conditions: Galectin-3 2 μg/ml, various concentrations
Procedure: Matrigel matrix (50 μl) was added to 96-well plates for 60 min at 37° C. to allow gel formation. HUVEC cells (1×10^5 cells/ml in 1:1 EGM/EBM2 media) was introduced to the plates without or with galectin-3 (2 μg/ml) or different concentrations of compound inhibitors for 24 hr at 37° C. Endothelial cell tube formation was examined with Laser Microscope. The total number of branching points and the sum of the lengths of tubes were measured.

[7] = tested on: human colon cancer SW620 cells; assay: Galectin-3-mediated SW620 cell adhesion to HUVECs; assay type: cell-based; conditions: Galectin-3 2 μg/ml, various concentrations
Procedure: HUVEC cells at 1×10^5 cells/ml in EGM medium were seeded into 24 well plates pre-inserted with 13 mm glass coverslip. The cells were incubated at 37° C. at 5% CO2 for 24 hr for monolayer formation. AGA19+ or SW620 cell suspension (5×10^5 cells/ml in DMEM) was introduced with 5 μl/ml fluorescent cell labelling solution DiL for 30 min at 37° C. The fluorescent labelled cells were washed twice with PBS and resuspended into 1×10^5 cells/ml in DMEM. The cancer cell suspension was then introduced with galectin-3 (2 μg/ml) and various concentrations of the compound inhibitors at 37° C. for 1 hr. The wells were carefully washed twice with PBS to remove the non-adhesion cells before the cells in the wells were fixed with 2% paraformaldehyde for 10 min. The glass coverslip was carefully removed from the plate, placed on a glass slide. After addition of fluorescence mounting medium containing DAPI, fluorescence labelled cells were quantified under a fluorescence microscope.

[8] = tested on: THP-1 differentiated macrophages; assay: Galectin-3-induced TNFα secretion from macrophages (ELISA); assay type: cell-based; conditions: Galectin-3 10 μg/ml, various concentrations
Procedure: as §4

vascular HUVECs = assay: LDH release cytotoxicity assay, HUVECs; assay type: cell-based, human; conditions: various concentrations
Procedure: as §6

[9] = tested on: human colon cancer SW620 cells; assay: SW620 cell invasion through HUVECs (transwell); assay type: cell-based; conditions: Galectin-3 1 ug/ml, transwells, several concentrations
Procedure: HUVECs were plated at a density of 1.5×10^4 cells in 8 μm pore transwells in 24-well plate and cultured for three days to allow formation of tight monolayer. The integrity of HUVEC monolayer was confirmed by measuring TEER and only monolayers with TEER reading>800 Ω/cm^2 were used for the invasion assay. AGA19+ or SW620 cell suspension (5×10^5 cells/ml in DMEM) was introduced with 5 μl/ml fluorescent cell labelling solution DiL for 30 min at 37° C. The fluorescence labelled cells were washed twice with PBS and resuspended into 1×10^5 cells/ml in DMEM. […] The cells at the upper side of the trans-well inserts were gently removed with cotton swabs. The cells migrated to the bottom side of the transwells were fixed with 2% paraformaldehyde for 10 min. The trans-well membrane was removed and placed on glass slides. After addition of fluorescence mounting medium containing DAPI, the fluorescence labelled cells on the membrane were quantified under a fluorescence microscope.

full-length galectin-3 = molecular target: T1, full-length galectin-3 (Homo sapiens, UniProt P17931); assay: Tryptophan Fluorescence Spectroscopy (TFS) binding affinity, full-length Galectin-3
T1 construct: made in house; host or cells: E. coli
Procedure: The binding affinity of the inhibitors to galectin-3 was determined by Intrinsic Tryptophan Fluorescence Spectroscopy (TFS) exactly as we described recently [Sindrewicz, P., et al., Intrinsic tryptophan fluorescence spectroscopy reliably determines galectin-ligand interactions. Sci Rep, 2019. 9(1): p. 11851]. The Galectin-3 concentration used was 10 μM and the inhibitor titration concentrations were from 0 to 224 μM. DMSO/control buffer (PBS with 2 mM EDTA) titrations were performed and used for background subtraction.

Galectin-3 = molecular target: T2, Galectin-3 (Homo sapiens, UniProt P17931); assay: Galectin-3 binding to asialofetuin (ASF) ELISA; conditions: for Inhibition of Galectin-3 binding to its ligand asialofetuin (ASF): Galectin-3 5 μg/ml, ASF 20 μg/ml, different concentrations of compound, ELISA; for pIC50: read-out: IC50, inhibition of Galectin-3 binding to its ligand
T2 construct: made in house; host or cells: E. coli
Procedure: (§5) Effect of the inhibitors on galectin binding to its ligand asialo fetuin (ASF) was measured by galectin ELISA. Nanty-six well plates were coated overnight with 20 μg/ml ASF in coating buffer (15 mM Na2CO3 17 mM NaHCO3 pH 9.6.). The wells were washed twice with PBS and incubated with blocking buffer (1% BSA in PBS) for 1 hr. The supernatants were removed and replaced with 5 μg/ml recombinant human galectin without or with different concentrations of the compound inhibitors or lactose in blocking buffer for 1 hr at room temperature. The wells were washed and incubated with 1 μg/ml anti-galectin antibody for 2 hr. Following addition of HRP-conjugated secondary antibody for 1 hr, FAST OPD development solution was added for 15-20 minutes. The reaction was terminated by addition of 4M sulphuric acid. The plates were read at 492 nm (reference wavelength 595 nm) by a microplate reader.

[10] = tested on: human lung cancer H1975 cells; assay: Lung cancer cell adhesion to basement matrix; assay type: cell-based; conditions: for pIC50: Homo sapiens, NCI-H1975; for Inhibition of H1975 cell adhesion to matrix: different concentrations
Procedure: as §1, §2

Galectin-8 = molecular target: T3, Galectin-8 (Homo sapiens, UniProt O00214); assay: Galectin-8 binding to asialofetuin ELISA; conditions: Gal-8 5 μg/ml, ASF 20 μg/ml
T3 construct: purchased R&D Systems (Abingdon, UK)
T3 sequence (O00214 1-317): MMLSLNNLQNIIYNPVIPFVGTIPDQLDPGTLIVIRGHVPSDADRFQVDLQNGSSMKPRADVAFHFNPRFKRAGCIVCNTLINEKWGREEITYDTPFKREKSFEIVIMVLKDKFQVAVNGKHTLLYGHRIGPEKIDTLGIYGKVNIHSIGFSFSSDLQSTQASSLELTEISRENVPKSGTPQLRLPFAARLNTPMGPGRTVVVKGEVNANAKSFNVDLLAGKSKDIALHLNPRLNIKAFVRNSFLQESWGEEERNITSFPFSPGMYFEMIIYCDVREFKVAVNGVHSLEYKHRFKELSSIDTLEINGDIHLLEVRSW
Procedure: as §5

T2 sequence (P17931 whole entry): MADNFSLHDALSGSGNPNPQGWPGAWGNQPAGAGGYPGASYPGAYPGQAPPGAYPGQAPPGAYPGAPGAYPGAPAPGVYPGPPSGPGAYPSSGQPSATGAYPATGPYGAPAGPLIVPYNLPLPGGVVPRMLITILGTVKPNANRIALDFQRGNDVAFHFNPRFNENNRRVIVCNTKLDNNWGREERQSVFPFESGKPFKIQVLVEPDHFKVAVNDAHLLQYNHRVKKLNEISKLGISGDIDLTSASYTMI
T1 sequence (P17931 whole entry): as above

Structure (SMILES)	Effect on adhesion of galectin-3 knockout (Gal3KO) MDA-MB-231 cells [2]	Effect on adhesion of non-transfected (con) MDA-MB-231 cells [2]	Inhibition of MDA-MB-231 cell adhesion to matrix [2]	Effect on adhesion of galectin-3 knockout (Gal3KO) PANC1 cells [3]	Effect on adhesion of non-transfected (con) PANC1 cells [3]	Inhibition of PANC1 cell adhesion to matrix [3]	Inhibition of galectin-3-induced IL-1β secretion [4]	Cytotoxicity to SW620 cells (LDH release) [5]	Inhibition of tubule numbers [6]	Inhibition of vascular tubule length [6]	Inhibition of SW620 cell adhesion to HUVECs [7]	Inhibition of galectin-3-induced TNFα secretion [8]	Cytotoxicity to HUVEC cells (LDH release) (vascular HUVECs)	Inhibition of galectin-3-mediated invasion of SW620 cells through HUVECs [9]	pKd (full-length galectin-3)	Inhibition of Galectin-3 binding to its ligand asialofetuin (ASF) (Galectin-3)	pIC50 (Galectin-3)	pIC50 [10]	Inhibition of H1975 cell adhesion to matrix [10]	other results
CO/N=C1\CN(c2nc3c(cc2F)c(=O)c(C(=O)O)cn3C2CC2)CC1CN (stereo not drawn) [Formula W, Gemifloxacin]	–	–	–	–	–	–	–	–	–	–	–	–	–	–	–	–	–	–	–	Effect on migration and invasion of human colon cancer cells (human colon cancer cells): inhibit migration and invasion; Effect on migration, invasion and metastasis in human breast cancer cells [1]: inhibit migration, invasion and metastasis
Cc1c(O)cccc1C(=O)N[C@@H](CSc1ccccc1)[C@H](O)CN1C[C@H]2CCCC[C@H]2C[C@H]1C(=O)NC(C)(C)C [Formula Y, Nelfinavir mesylate]	lost their inhibitory effect	significant reduction	dose-dependent inhibition	lost their inhibitory effect	significant reduction	dose-dependent inhibition	dose-dependent inhibition	little or low toxicity	dose-dependent inhibition	dose-dependent inhibition	dose-dependent inhibition	dose-dependent inhibition	little or low toxicity	dose-dependent inhibition	~4.05	inhibit galectin-3 binding to ASF in a dose-dependent manner	≥ 5.00	~5.30	dose-dependent inhibition	pIC50 ([2]; Homo sapiens, MDA-MB-231): ~5.00
CN(C)CCOc1ccc(/C(=C(/CCCl)c2ccccc2)c2ccccc2)cc1 [Formula Z, Toremifene citrate]	lost their inhibitory effect	significant reduction	dose-dependent inhibition	lost their inhibitory effect	significant reduction	dose-dependent inhibition	dose-dependent inhibition	low cytotoxicity	dose-dependent inhibition	dose-dependent inhibition	dose-dependent inhibition	dose-dependent inhibition	low cytotoxicity	dose-dependent inhibition	~4.46	inhibit galectin-3 binding to ASF in a dose-dependent manner	≥ 5.00	5.00 to 5.30	dose-dependent inhibition	–
OC[C@H]1O[C@@H](O[C@H]2[C@H](O)[C@@H](O)C(O)O[C@@H]2CO)[C@H](O)[C@@H](O)[C@H]1O (stereo partly drawn) [lactose]	–	–	–	–	–	–	–	–	–	–	–	–	–	–	–	–	–	–	–	Effect on Galectin-8 binding to asialofetuin (Galectin-8): dose-dependently inhibits
